Measured values: patent publication US5242783A, “Photographic material and process” (Eastman Kodak Company, priority 1992, dated 1993)

Assay: Deblocking of ester in pH 10.0 carbonate buffer with hydroxylamine (A+C), reaction half-life and rate enhancement
Assay type: physicochemical
Details: for reactivity with hydroxylamine vs comparisons: from Table I; for Ratio of the A+B half-life to the A+C half-life (rate enhancement): pH 10.0, 25° C.
Experimental: Model studies were conducted on esters E-1 through E-6 to determine the possible rate enhancement which could be attained by using a dinucleophile rather than a mononucleophile to promote the removal from a phenolic moiety of a blocking group of this invention. Aqueous solutions A, B, and C, each containing 50% by volume of acetonitrile were prepared as follows (a separate solution A for each ester):
Solution A: 2.5 × 10^-4 M ester (or 2.5 × 10^-5 M E-
Solution B: 25% by volume carbonate buffer
(pH 10.0, ionic strength 0.75);
Solution C: Solution B with added 0.05M
Then equal volumes of A and B (or A and C) were mixed at 25° C. to give a pH 10.0 solution and the reaction was followed by spectrophotometric measurements of the phenol (290 nm) or p-nitrophenol (402 nm) produced with time. In each case a reaction half-life (t1/2) was calculated from the equation t/1/2 =1n(2)/k, where 1n(2) is the natural logarithm of 2 and k is the pseudo first-order rate constant calculated for the reaction. Smaller half-lives thus indicate more rapid reactions. The A+B combination provides an alkaline solution in which the main reactant is hydroxide ion (a mononucleophile) while in the A.C combination the active reactant is hydroxylamine (a dinucleophile). A ratio of the A+B half-life to the A+C half-life provides a measure of rate enhancement due to participation of hydroxylamine in the deblocking reaction.

| SMILES | Ratio of the A+B half-life to the A+C half-life (rate enhancement) | reactivity with hydroxylamine vs comparisons |
| --- | --- | --- |
| CN(C(=O)N1CCC(=O)C(C)(C(=O)Oc2ccc([N+](=O)[O-])cc2)C1)c1ccccc1 (centres unmarked) [Example E-1] | 3.8 × 10^4 | much more reactive with the dinucleophile hydroxylamine than are the comparisons |
| COc1ccc(C(=O)N2CCC(=O)C(C)(C(=O)Oc3ccc([N+](=O)[O-])cc3)C2)cc1 (centres unmarked) [Example E-2] | 2.9 × 10^4 | much more reactive with the dinucleophile hydroxylamine than are the comparisons |
| CC1(C(=O)Oc2ccc([N+](=O)[O-])cc2)CN(C(=O)OCc2ccc([N+](=O)[O-])cc2)CCC1=O (centres unmarked) [Example E-3] | 3.6 × 10^4 |  |
| CC1(C(=O)Oc2ccc([N+](=O)[O-])cc2)CCCCC1=O (centres unmarked) [Example E-4, reference compound] | 2.3 × 10^5 |  |

Now from value to compound, other results behind:

| Ratio of the A+B half-life to the A+C half-life (rate enhancement) | SMILES | reactivity with hydroxylamine vs comparisons |
| --- | --- | --- |
| 3.7 × 10^4 | CC(=O)C(C)(C)C(=O)Oc1ccccc1 [Example E-5, reference compound] |  |
| 1.7 × 10^2 | CC(=O)CC(C)(C)C(=O)Oc1ccccc1 [Example E-6, reference compound] |  |
